Data set [1] is described as follows: Stability of ademetionine in the compositions. It is filed as physicochemical. Conditions: +40° C. and 75% RH. On the procedure:
The compositions prepared according to the previous examples were placed in dark glass jars in cabinets with temperature and relative humidity control (+40° C. and 75% RH), periodically checking the content of active substances. The stability of the raw material is used as a reference.

Data set [2] is described as follows: Residual humidity according to Karl-Fisher during processing under vacuum. The data set is classed as physicochemical. Conditions: Phase: dosage. On the procedure: It was operated as described in Example 3, but the step of mixing the active substances was carried out under vacuum, as described in Example 11.

Each structure is given as a SMILES string.

As to `C[S+](CC[C@H](N)C(=O)[O-])C[C@H]1O[C@@H](n2cnc3c(N)ncnc32)[C@H](O)[C@@H]1O` (stereo partly drawn) [Ademetionine, S,S-adenosyl-L-methionine], in data set [1] (dark glass jars, 0 months), the “ademetionine content, Time (months) 0” value came out at 51.5. In addition, in data set [1] (dark glass jars, 1 month), the “ademetionine content, Time (months) 1” value is 51.0. For the same molecule, the “ademetionine content, Time (months) 2” value in data set [1] (dark glass jars, 2 months) amounted to 49.6. In addition, in data set [1] (dark glass jars, 3 months), the “ademetionine content, Time (months) 3” value is on record as 48.8. The “% residual ion” value in data set [1] (active substance content after three months as a percentage with respect to time zero) was found to be 94.8%. The “KF: residual humidity” value in data set [2] was determined as 2.7% w/w.

The values are drawn from US20230190781A1, “ADEMETIONINE AND CANNABIDIOL BASED SOLID PHARMACEUTICAL COMPOSITION AND METHOD FOR PREPARING IT” (priority 2020, published 2023).
